Publication PMC11265914, “Unravelling nicotinic receptor and ligand features underlying neonicotinoid knockdown actions on the malaria vector mosquito Anopheles gambiae” (Open Biology, 2024)

Biological target: T1, Ls-AChBP (Lymnaea stagnalis, UniProt P58154, Q74R)
T1 construct: over-expressed in Pichia pastoris, deglycosylated, purified; homo-pentamer
Experiment: X-ray crystal structure of the complex
Type: binding
Conditions: cocrystallized with 1 mM dinotefuran, PEG4000, 0.2 M sodium citrate pH 5.4, 20 °C; all five orthosteric sites

Q: How did the “X-ray crystal structure of the complex” value turn out when `CNC(=N[N+](=O)[O-])NC[C@@H]1CCOC1` [dinotefuran] was run?
A: Dinotefuran bound to all five orthosteric sites of the protein
